Tested on: NCI-H719 tumor spheroids, viability
Assay: Anticancer human tumor NCI-H719 cell line growth inhibition;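 further: spheroids exposed to compounds for seven days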;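 on viability, T/C: percent viability relative to DMSO vehicle control as 100%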
Conditions: spheroids with HUVEC and MSC; for IC50: curve of first compound; for viability, T/C: stronger effect = lower value
In short: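 Single agents and combinations were tested on spheroids built from tumor cells plus HUVEC and hMSC, at half-log dilutions starting at or near clinical Cmax, else 10 microM; final DMSO 0.25% (v/v).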

[1] = second compound 0.003 µM, first compound 0.0316 µM
[2] = second compound 0.003 µM, first compound 0.1 µM
[3] = second compound 0.003 µM, first compound 0.316 µM
[4] = second compound 0.003 µM, first compound 1 µM
[5] = second compound 0.003 µM, first compound 3.16 µM
[6] = second compound 0.003 µM, first compound 10 µM
[7] = second compound 0.00949 µM, first compound 0.0316 µM
[8] = second compound 0.00949 µM, first compound 0.1 µM
[9] = second compound 0.00949 µM, first compound 0.316 µM
[10] = second compound 0.00949 µM, first compound 1 µM
[11] = second compound 0.00949 µM, first compound 3.16 µM
[12] = second compound 0.00949 µM, first compound 10 µM
[13] = second compound 0.03 µM, first compound 0.0316 µM
[14] = second compound 0.03 µM, first compound 0.1 µM
[15] = second compound 0.03 µM, first compound 0.316 µM
[16] = second compound 0.03 µM, first compound 1 µM
[17] = second compound 0.03 µM, first compound 3.16 µM
[18] = second compound 0.03 µM, first compound 10 µM
[19] = second compound 0.0949 µM, first compound 0.0316 µM
[20] = second compound 0.0949 µM, first compound 0.1 µM
[21] = second compound 0.0949 µM, first compound 0.316 µM
[22] = second compound 0.0949 µM, first compound 1 µM
[23] = second compound 0.0949 µM, first compound 3.16 µM
[24] = second compound 0.0949 µM, first compound 10 µM
[25] = second compound 0.3 µM, first compound 0.0316 µM
[26] = second compound 0.3 µM, first compound 0.1 µM
[27] = second compound 0.3 µM, first compound 0.316 µM
[28] = second compound 0.3 µM, first compound 1 µM
[29] = second compound 0.3 µM, first compound 3.16 µM
[30] = second compound 0.3 µM, first compound 10 µM

CC1COCCN1c1cc(-c2ccnn2C)c2ccnc(-c3ccn[nH]3)c2n1 (stereo not given) + CC[C@@]1(O)C(=O)OCc2c1cc1n(c2=O)Cc2cc3c(CN(C)C)c(O)ccc3nc2-1
IC50 (second compound 0.003 µM): < 31.6 nM | IC50 (second compound 0.00949 µM): < 31.6 nM | IC50 (second compound 0.03 µM): < 31.6 nM | IC50 (second compound 0.0949 µM): < 31.6 nM | IC50 (second compound 0.3 µM): < 31.6 nM | viability, T/C [1]: 14.9% | viability, T/C [2]: 7.36% | viability, T/C [3]: 5.05% | viability, T/C [4]: 5.69% | viability, T/C [5]: 5.95% | viability, T/C [6]: 7.37% | viability, T/C [7]: 5.44% | viability, T/C [8]: 4.76% | viability, T/C [9]: 5.26% | viability, T/C [10]: 4.81% | viability, T/C [11]: 5.91% | viability, T/C [12]: 7.24% | viability, T/C [13]: 5.59% | viability, T/C [14]: 5.35% | viability, T/C [15]: 4.66% | viability, T/C [16]: 4.18% | viability, T/C [17]: 5.76% | viability, T/C [18]: 7.48% | viability, T/C [19]: 5.89% | viability, T/C [20]: 5.72% | viability, T/C [21]: 4.2% | viability, T/C [22]: 3.96% | viability, T/C [23]: 3.73% | viability, T/C [24]: 3.78% | viability, T/C [25]: 5.64% | viability, T/C [26]: 5.76% | viability, T/C [27]: 5.49% | viability, T/C [28]: 2.94% | viability, T/C [29]: 2.15% | viability, T/C [30]: 2.17%

COc1cc(C)[nH]c(=O)c1CN1CCc2c(Cl)cc(C(OC)C3COC3)c(Cl)c2C1=O (stereo not given) + CC[C@@]1(O)C(=O)OCc2c1cc1n(c2=O)Cc2cc3c(CN(C)C)c(O)ccc3nc2-1
IC50 (second compound 0.003 µM): > 10000 nM | IC50 (second compound 0.00949 µM): < 31.6 nM | IC50 (second compound 0.03 µM): < 31.6 nM | IC50 (second compound 0.0949 µM): < 31.6 nM | IC50 (second compound 0.3 µM): < 31.6 nM | viability, T/C [1]: 69.7% | viability, T/C [2]: 57.6% | viability, T/C [3]: 74.2% | viability, T/C [4]: 65% | viability, T/C [5]: 77% | viability, T/C [6]: 69.1% | viability, T/C [7]: 12.2% | viability, T/C [8]: 9.34% | viability, T/C [9]: 9.67% | viability, T/C [10]: 10.4% | viability, T/C [11]: 7.95% | viability, T/C [12]: 7.67% | viability, T/C [13]: 6.93% | viability, T/C [14]: 8.47% | viability, T/C [15]: 6.68% | viability, T/C [16]: 8.32% | viability, T/C [17]: 8.79% | viability, T/C [18]: 7.28% | viability, T/C [19]: 8.78% | viability, T/C [20]: 7.8% | viability, T/C [21]: 7.84% | viability, T/C [22]: 8.96% | viability, T/C [23]: 8.75% | viability, T/C [24]: 8.8% | viability, T/C [25]: 7.71% | viability, T/C [26]: 9.03% | viability, T/C [27]: 8.64% | viability, T/C [28]: 9.67% | viability, T/C [29]: 8.76% | viability, T/C [30]: 7.22%

[2H]c1nc(C)nc([2H])c1-c1cc(NC[C@@H](C)c2cccc3c(C(=O)NC)ccnc23)ncn1 + CC[C@@]1(O)C(=O)OCc2c1cc1n(c2=O)Cc2cc3c(CN(C)C)c(O)ccc3nc2-1
IC50 (second compound 0.003 µM): > 10000 nM | IC50 (second compound 0.00949 µM): < 31.6 nM | IC50 (second compound 0.03 µM): < 31.6 nM | IC50 (second compound 0.0949 µM): < 31.6 nM | IC50 (second compound 0.3 µM): < 31.6 nM | viability, T/C [1]: 51% | viability, T/C [2]: 62.2% | viability, T/C [3]: 63.5% | viability, T/C [4]: 52% | viability, T/C [5]: 66% | viability, T/C [6]: 51.4% | viability, T/C [7]: 10.3% | viability, T/C [8]: 8.59% | viability, T/C [9]: 8.43% | viability, T/C [10]: 7.06% | viability, T/C [11]: 6.95% | viability, T/C [12]: 9.89% | viability, T/C [13]: 7.23% | viability, T/C [14]: 6.65% | viability, T/C [15]: 6.56% | viability, T/C [16]: 8.39% | viability, T/C [17]: 8.61% | viability, T/C [18]: 8.73% | viability, T/C [19]: 7.9% | viability, T/C [20]: 7.8% | viability, T/C [21]: 7.91% | viability, T/C [22]: 7.63% | viability, T/C [23]: 7.79% | viability, T/C [24]: 9.29% | viability, T/C [25]: 8.56% | viability, T/C [26]: 8.32% | viability, T/C [27]: 8.45% | viability, T/C [28]: 8.64% | viability, T/C [29]: 8.15% | viability, T/C [30]: 8.2%

From PubChem BioAssay AID1845212 (Molecular Pharmacology Branch, DTP, NCI, 2023)
